For the data set the following is noted: 300 K; 101.33 kPa; Crystal; Coaxial cylinder method.

± gives the expanded uncertainty stated by the source.

In the case of `[BH3-][NH3+]` [ammonia borane], the thermal conductivity is reported as 15 ± 3 W/m/K.

The values above are taken from the NIST ThermoML archive (doi:10.1016/j.tca.2006.10.012).
